The test system of assay [1] is GOS2. Briefly: Real-time PCR gene expression in rat epidermal split containing sebaceous glands after topical treatment: GOS2. The note with it: topical administration, 0.3% in acetone, 96 hours. The format is in vivo. On the procedure: (§1) Strain: OFA-SD (SPF Caw),
(§2) Number per batch: 40 (8 animals per group) Treatment: Route of administration: topical
(§3) Compound/batch: PPARgamma agonist (rosiglitazone)
(§4) Method of evaluation: The animals are weighed at the beginning and at the end of the study. Skin biopsies are taken (6 samples of skin excised per rat) in order to analyse the expression of the genes (RNA extraction, reverse transcriptase and real-time PCR). The samples are stored overnight at 4° C. before incubation in 1M sodium bromide (NaBr) for 2 hours at 37° C. After incubation, the samples are separated into epidermis or dermis. The epidermal samples are stored at […]. Under these conditions, the sebaceous glands are in the epidermal split. PCRs are carried out, beginning with the cDNAs originating from the epidermal splits containing sebaceous glands from control rats or rats treated with the PPARγ agonist: the mRNA is extracted using a column and quantified. The quality of mRNAs is measured and is represented by the 18S/28S ratio. The results are standardized with respect to 18S, expressed as relative induction versus untreated animals (carrier group). The statistical analysis is obtained using internal software based on a modified Monte Carlo statistical analysis.
A general note: In qPCR the cycle at which signal appears reflects the starting amount.

The next assay relates to PPARG (reference gene). Briefly: Real-time PCR gene expression in rat epidermal split containing sebaceous glands after topical treatment: PPARG. The format is in vivo. Conditions: topical administration, 0.3% in acetone, 96 hours. How it is done:
as §1, §2, §3, §4

For a further assay, the system named is PPARG. The assay is described as above. In kind it is in vivo. Conditions: topical administration, 0.3% in acetone, 96 hours, versus carrier group. How it is done:
as §1, §2, §3, §4

The next assay relates to HPRT1 (standardizer 1). Briefly: Real-time PCR gene expression in rat epidermal split containing sebaceous glands after topical treatment: HPRT1. The format is in vivo. The note with it: topical administration, 0.3% in acetone, 96 hours. On the procedure:
as §1, §2, §3, §4

For the next assay, the system named is ACTB (standardizer 2). Briefly: Real-time PCR gene expression in rat epidermal split containing sebaceous glands after topical treatment: ACTB. The format is in vivo. The note with it: topical administration, 0.3% in acetone, 96 hours. On the procedure:
as §1, §2, §3, §4

The test system of assay [2] is GOS2. The note with it: mouse liver; Zandbergen et al., 2005; cited from earlier work.

For the compound `COCCOCOc1ccc2cc(C(=O)N(C)Cc3cccc(-c4ccc(CC5SC(=O)NC5=O)cc4)c3)ccc2c1` (stereo not drawn) [PPARgamma agonist, 6-(2-methoxyethoxy-methoxy)naphthalene-2-carboxylic acid [4′-(2,4-dioxothiazolidin-5-ylmethyl)biphenyl-3-ylmethyl]methylamide], the “Variation versus carrier after standardization (ΔΔCt)” value in the assay with GOS2 [1] was 2.36; with PPARG (reference gene), 0.72; in the assay on HPRT1 (standardizer 1), −0.07; with ACTB (standardizer 2) it was 0.23. Further, the Relative induction in the assay on GOS2 [1] (versus carrier group) was 5.24; in the assay on PPARG, 1.65; in the assay with HPRT1 (standardizer 1) (versus carrier group), −1.05; in the assay with ACTB (standardizer 2) (versus carrier group) it was 1.18.

In the case of `Cc1cccc(Nc2cc(Cl)nc(SCC(=O)O)n2)c1C` [Wy14643], in the assay with GOS2 [2], the “expression of GOS2 (marker for PPARalpha)” value is “induced”.

Values taken from patent publication US20110263677A1, “GOS2 MODULATORS IN THE TREATMENT OF ACNE, OF SEBORRHOEIC DERMATITIS OR OF HYPERSEBORRHOEA” (Galderma Research & Development, priority 2008, published 2011).
